Results taken from the supplement of paper PMC10307832.

How the values were obtained:
Experiment in all cases: relative viability (nuclei count vs DMSO), 5 days (fraction); higher = more cells survive
Erlotinib + Tozasertib = compound: C#Cc1cccc(Nc2ncnc3cc(OCCOC)c(OCCOC)cc23)c1 [Erlotinib] + Cc1cc(Nc2cc(N3CCN(C)CC3)nc(Sc3ccc(NC(=O)C4CC4)cc3)n2)n[nH]1 [Tozasertib] (partner 0.1 µM)
Summary of the method: (§1)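 Five library-drug doses in √10 steps were combined with a fixed anchor-drug dose, or a single drug was given alone, by pin tool to lung cancer cell lines in 1536-well plates the day after seeding. Nuclei were stained and counted after 5 days. Relative viability is the nuclei count in treated wells over that in vehicle wells, taken as the median of duplicate plates.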

AT9283 + Crizotinib = compound: O=C(Nc1c[nH]nc1-c1nc2ccc(CN3CCOCC3)cc2[nH]1)NC1CC1 [AT9283] + C[C@@H](Oc1cc(-c2cnn(C3CCNCC3)c2)cnc1N)c1c(Cl)ccc(F)c1Cl [Crizotinib] (partner 1 µM)
Summary of the method: as §1

Erlotinib + Phenformin = compound: C#Cc1cccc(Nc2ncnc3cc(OCCOC)c(OCCOC)cc23)c1 [Erlotinib] + N=C(N)NC(=N)NCCc1ccccc1 [Phenformin] (partner 250 µM)
Summary of the method: as §1

AT9283 + Tozasertib = compound: O=C(Nc1c[nH]nc1-c1nc2ccc(CN3CCOCC3)cc2[nH]1)NC1CC1 [AT9283] + Cc1cc(Nc2cc(N3CCN(C)CC3)nc(Sc3ccc(NC(=O)C4CC4)cc3)n2)n[nH]1 [Tozasertib] (partner 0.1 µM)
Summary of the method: as §1

AT9283 + Pemetrexed = compound: O=C(Nc1c[nH]nc1-c1nc2ccc(CN3CCOCC3)cc2[nH]1)NC1CC1 [AT9283] + Nc1nc2[nH]cc(CCc3ccc(C(=O)N[C@@H](CCC(=O)O)C(=O)O)cc3)c2c(=O)[nH]1 [Pemetrexed] (partner 0.2 µM)
Summary of the method: as §1

Cell Line	relative viability (Erlotinib + Tozasertib; first compound 0.02 µM)	relative viability (Erlotinib + Tozasertib; first compound 0.2 µM)	relative viability (Erlotinib + Tozasertib; first compound 0.6325 µM)	relative viability (Erlotinib + Tozasertib; first compound 2 µM)	relative viability (AT9283 + Crizotinib; first compound 0.003 µM)	relative viability (AT9283 + Crizotinib; first compound 0.03 µM)	relative viability (AT9283 + Crizotinib; first compound 0.09487 µM)	relative viability (AT9283 + Crizotinib; first compound 0.3 µM)	relative viability (Erlotinib + Phenformin; first compound 0.02 µM)	relative viability (Erlotinib + Phenformin; first compound 0.2 µM)	relative viability (Erlotinib + Phenformin; first compound 0.6325 µM)	relative viability (Erlotinib + Phenformin; first compound 2 µM)	relative viability (AT9283 + Tozasertib; first compound 0.003 µM)	relative viability (AT9283 + Tozasertib; first compound 0.03 µM)	relative viability (AT9283 + Tozasertib; first compound 0.09487 µM)	relative viability (AT9283 + Tozasertib; first compound 0.3 µM)	relative viability (AT9283 + Pemetrexed; first compound 0.003 µM)	relative viability (AT9283 + Pemetrexed; first compound 0.03 µM)	relative viability (AT9283 + Pemetrexed; first compound 0.09487 µM)	relative viability (AT9283 + Pemetrexed; first compound 0.3 µM)
LOU-NH91	0.564	0.472	0.491	0.424	0.686	0.679	0.52	0.429	0.449	0.481	0.44	0.473	0.61	0.391	0.373	0.388	0.406	0.385	0.331	0.351
LU99A	0.305	0.271	0.263	0.221	0.492	0.28	0.185	0.168	0.942	0.794	0.886	0.841	0.268	0.247	0.226	0.222	0.162	0.184	0.139	0.112
LXF-289	0.195	0.218	0.208	0.117	0.829	0.511	0.151	0.138	0.54	–	0.496	0.476	0.2	0.127	0.0989	0.0888	0.827	0.861	0.215	0.128
NCI-H23	0.387	0.344	0.299	0.26	0.458	0.326	0.299	0.189	–	0.662	0.684	0.72	0.413	0.603	0.276	0.285	0.675	0.749	0.296	0.238
NCI-H322M	0.42	0.374	0.331	0.314	0.888	0.611	0.446	0.337	0.816	0.592	0.539	0.421	0.499	0.511	0.395	0.443	0.605	0.438	0.443	0.482
NCI-H358	0.0843	0.111	0.0963	0.0822	0.391	0.175	0.156	0.145	0.349	0.277	0.234	0.178	0.108	0.0953	0.107	0.0809	0.164	0.124	0.111	0.112
NCI-H460	0.44	0.191	0.109	0.0585	0.729	0.786	0.0665	0.0361	0.524	0.512	0.541	0.466	0.388	0.198	0.0277	0.0528	0.0566	0.0638	0.0674	0.0587
NCI-H520	0.427	0.471	0.466	0.432	0.692	0.322	0.285	0.182	0.751	0.525	0.646	0.706	0.48	0.435	0.423	0.251	0.702	0.302	0.303	0.198
NCI-H596	0.805	0.848	0.69	0.722	0.897	0.974	0.966	0.707	0.745	0.698	0.735	0.688	0.943	0.839	0.933	0.553	0.512	0.574	0.529	0.462
NCI-H647	0.257	0.179	0.28	0.136	1.01	0.357	0.201	0.121	0.586	0.476	0.632	0.353	0.307	0.14	0.117	0.118	0.168	0.127	0.0669	0.0634
NCI-H650	–	–	0.767	0.58	0.6	0.368	0.222	0.22	0.424	0.462	0.449	0.479	0.693	0.408	0.17	0.177	0.939	0.864	0.53	0.153
NCI-H661	0.344	0.381	0.341	0.394	0.986	0.571	0.409	0.452	0.301	0.264	0.269	0.318	0.347	0.344	0.389	0.37	0.932	0.449	0.405	0.385
NCI-H838	0.293	0.273	0.283	0.25	0.877	0.367	0.246	0.186	0.668	0.509	0.694	0.493	0.274	0.271	0.216	0.24	0.227	0.21	0.182	0.153
NCI-H1355	0.567	0.538	0.4	0.266	1.03	0.992	0.529	0.199	0.474	0.493	0.458	0.414	0.518	0.464	0.224	0.218	0.989	1.02	0.719	0.301
NCI-H1437	0.406	0.403	0.448	0.357	1.04	0.732	0.443	0.243	0.352	0.301	0.286	0.286	0.426	0.321	0.215	0.238	0.306	0.298	0.264	0.225
NCI-H1650	0.465	0.332	0.305	0.217	1.01	0.596	0.267	0.217	0.4	0.263	0.411	0.274	0.386	0.328	0.36	0.35	0.358	0.362	0.361	0.28

Cell Line	relative viability (Erlotinib + Tozasertib; first compound 0.02 µM)	relative viability (Erlotinib + Tozasertib; first compound 0.2 µM)	relative viability (Erlotinib + Tozasertib; first compound 0.6325 µM)	relative viability (Erlotinib + Tozasertib; first compound 2 µM)	relative viability (AT9283 + Crizotinib; first compound 0.003 µM)	relative viability (AT9283 + Crizotinib; first compound 0.03 µM)	relative viability (AT9283 + Crizotinib; first compound 0.09487 µM)	relative viability (AT9283 + Crizotinib; first compound 0.3 µM)	relative viability (Erlotinib + Phenformin; first compound 0.02 µM)	relative viability (Erlotinib + Phenformin; first compound 0.2 µM)	relative viability (Erlotinib + Phenformin; first compound 0.6325 µM)	relative viability (Erlotinib + Phenformin; first compound 2 µM)	relative viability (AT9283 + Tozasertib; first compound 0.003 µM)	relative viability (AT9283 + Tozasertib; first compound 0.03 µM)	relative viability (AT9283 + Tozasertib; first compound 0.09487 µM)	relative viability (AT9283 + Tozasertib; first compound 0.3 µM)	relative viability (AT9283 + Pemetrexed; first compound 0.003 µM)	relative viability (AT9283 + Pemetrexed; first compound 0.03 µM)	relative viability (AT9283 + Pemetrexed; first compound 0.09487 µM)	relative viability (AT9283 + Pemetrexed; first compound 0.3 µM)
NCI-H1651	0.671	–	0.606	0.282	0.856	0.897	0.505	0.411	0.336	0.316	0.288	0.259	0.699	0.638	0.506	0.316	0.48	0.506	0.528	0.378
NCI-H1666	0.551	0.523	0.498	0.482	1.08	0.777	0.377	0.311	0.562	0.584	0.522	0.533	0.671	0.479	0.428	0.43	0.775	0.818	0.718	0.612
NCI-H1734	0.259	0.238	0.273	0.273	0.725	0.335	0.246	0.216	0.4	0.378	0.391	0.359	0.255	0.249	0.233	0.186	0.384	0.404	0.326	0.228
NCI-H1755	–	0.561	0.505	0.422	0.891	0.718	0.433	0.385	0.614	–	0.642	0.582	0.624	0.469	0.419	0.367	0.438	0.415	0.361	0.301
NCI-H1915	0.45	0.405	0.408	0.262	0.842	0.826	0.226	0.255	0.398	0.378	0.383	0.35	0.347	0.3	0.195	0.179	0.547	0.431	0.326	0.254
NCI-H1944	0.249	0.21	0.227	0.174	0.9	0.648	0.257	0.294	0.199	0.194	0.198	0.172	0.256	0.257	0.23	0.224	0.627	0.5	0.232	0.191
NCI-H1975	0.773	0.549	0.251	0.142	0.945	0.903	0.695	0.348	0.415	0.377	0.405	0.38	0.728	0.664	0.58	0.311	0.295	0.282	0.27	0.276
NCI-H1993	0.574	0.518	0.569	0.591	0.915	0.654	0.572	0.543	0.564	0.59	0.573	0.549	0.6	0.571	0.611	0.491	0.565	0.514	0.52	0.389
NCI-H2009	0.751	0.746	0.834	0.62	0.967	0.446	0.26	0.248	0.533	0.51	0.529	0.49	0.737	0.514	0.399	0.226	1.03	0.983	0.713	0.243
NCI-H2023	0.365	0.241	0.165	0.188	0.704	0.471	0.196	0.123	0.435	0.418	0.471	0.378	0.388	0.232	0.19	0.18	0.214	0.199	0.126	0.102
NCI-H2085	0.808	0.637	0.598	0.404	0.865	0.693	0.471	0.328	0.762	0.493	0.528	0.472	0.835	0.832	0.5	0.387	0.959	0.9	0.537	0.441
NCI-H2087	0.259	0.279	0.191	0.132	0.795	0.554	0.401	0.326	0.516	0.483	0.506	0.304	0.24	0.192	0.189	0.148	0.664	0.586	0.261	0.183
NCI-H2126	0.841	0.691	0.674	0.481	0.943	1.02	0.69	0.465	0.534	0.464	0.489	0.41	0.788	0.506	0.341	0.313	0.684	0.693	0.559	0.358
NCI-H2170	0.811	0.73	0.607	0.324	1.22	0.73	0.236	0.198	0.422	0.463	0.386	0.324	0.748	0.276	0.164	0.157	0.464	0.234	0.2	0.132
NCI-H2228	0.237	0.164	0.169	0.142	0.587	0.272	0.195	0.171	0.414	0.338	0.357	0.257	0.333	0.199	0.142	0.138	0.337	0.244	0.181	0.16
